In ChEMBL document CHEMBL1201862, “PubChem BioAssay data set” (2004):
Active and inactive are the calls of the source.

Legend:
HEK293 = assay: inhibitors of LMP1-driven NF-kB reporter, dose response, cell-based, HEK293, luciferase, cherry-pick (AID 588343); type: functional; conditions: Homo sapiens
HT-1080 = assay: cytotoxicity in HT1080 fibrosarcoma cells, cell-based, fluorescence readout (AID 620); type: functional; conditions: Homo sapiens
[1] = biological target: Luciferin 4-monooxygenase (Photinus pyralis, UniProt P08659); assay: Counter Screen for Luciferase-based Assay Positives. [Related pubchem assays: 620, 618, 411 ]
Chaperone protein dnaK = Chaperone protein dnaK (Escherichia coli, UniProt C3TRK2); assay: DnaK beta-domain binding affinity, SAR follow-up, orthogonal assay for DnaK modulator project, biophysical, isothermal titration calorimetry, full-length DnaK (AID 1495)
Bcl-2-related protein A1 [2] = biological target: T1, Bcl-2-related protein A1 (Mus musculus, UniProt Q07440); assay: Bfl-1 inhibitors blocking BH3 peptide binding, confirmation, biochemical, TR-FRET, mouse Bfl-1 (AID 621);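 further: TR-FRET binding of GST-Bfl-1 to FITC-labelled Bid peptide via terbium antibody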
T1 sequence (Q07440 whole entry): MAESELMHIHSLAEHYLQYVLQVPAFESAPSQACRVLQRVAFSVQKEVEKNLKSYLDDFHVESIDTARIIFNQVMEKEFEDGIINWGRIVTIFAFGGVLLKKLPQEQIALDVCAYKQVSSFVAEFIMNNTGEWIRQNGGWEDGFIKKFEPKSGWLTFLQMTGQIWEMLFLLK

[3] = biological target: T2, Calpain-2 catalytic subunit (Sus scrofa, UniProt P43367); assay: pig calpain II inhibitor potency, dose response, biochemical, fluorogenic peptide substrate (AID 1420); type: functional
T2 sequence (P43367 whole entry): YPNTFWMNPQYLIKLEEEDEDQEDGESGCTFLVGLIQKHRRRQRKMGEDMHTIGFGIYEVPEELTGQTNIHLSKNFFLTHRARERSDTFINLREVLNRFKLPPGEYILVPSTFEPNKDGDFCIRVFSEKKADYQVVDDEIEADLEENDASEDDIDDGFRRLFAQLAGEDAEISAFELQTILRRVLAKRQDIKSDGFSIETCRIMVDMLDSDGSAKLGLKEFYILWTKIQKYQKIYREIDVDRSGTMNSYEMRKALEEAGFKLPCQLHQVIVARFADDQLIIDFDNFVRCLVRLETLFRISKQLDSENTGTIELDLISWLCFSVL

Bcl-2-related protein A1 [4] = biological target: T1, Bcl-2-related protein A1; assay: Bfl-1 inhibitors, primary screen, biochemical, fluorescence polarization, FITC-Bid, mouse (AID 432)
Protein Rev = Protein Rev (Human immunodeficiency virus type 1 group M subtype B (isolate WMJ22)(HIV-1), UniProt P05866); assay: HIV-1 Rev-RRE RNA binding disruptors, dose response, biochemical, protein-RNA interaction (AID 842); set-up: species or system Human immunodeficiency virus 1
Cytochrome P450 3A4 = Cytochrome P450 3A4 (Homo sapiens, UniProt P08684); conditions: Potency;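 further: confirmatory qHTS run detecting inhibitors and substrates of CYP3A4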
[5] = test system: Streptococcus sp. 'group A'; assay: growth inhibition of control SK(-) GAS strain, dose response, counter-screen for streptokinase expression inhibitor project, luminescence, kanamycin, BacTiterGlo, confirmation (AID 1900); type: functional, organism-based; conditions: read-out: EC50
Streptococcus [6] = assay: Luminescence Microorganism-Based Dose Response Follow up to Identify Compounds Cytotoxic to Streptococcus. [Related pubchem assays: 1677 (Project Summary), 1915, 1914, 1902 (Retest at Dose), 1900 (Counter Screen), 1662 (Primary HTS)]; type: functional, organism-based
[7] = inhibitors of SNCA 5'UTR-driven reporter translation, confirmation, H4 neuroglioma cells, luminescence (AID 1988); type: functional, cell-based
Streptococcus [8] = assay: Group A Streptococcus viability loss, dose response, counter-screen for streptokinase expression inhibitor project, luminescence, BacTiterGlo (AID 1915); type: functional, organism-based;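 further: potency for reduction of bacterial viability or growth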
[9] = Luminescence Cell-Based Dose Response HTS to Identify Inhibitors of 5'UTR Stem-Loop Driven Prion Protein mRNA Translation in H4 Neuroglioblastoma Cells. [Related pubchem assays: 1827 (Project Summary), 1813 (Primary HTS)]; type: functional
[10] = inhibitors of firefly luciferase expression or activity, dose response, H4 neuroglioma cells, luminescence (AID 1990); type: functional, cell-based
Streptokinase A = biological target: T3, Streptokinase A (Streptococcus pyogenes serotype M1, UniProt P10520); assay: S. pyogenes streptokinase expression inhibitors, potency, dose response, plasminogen activation absorbance, OD405 (AID 1914); type: functional, Streptococcus pyogenes M1 GAS;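 further: secreted streptokinase activity via plasminogen activation per viability signal from cell pellet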
T3 sequence (P10520 whole entry): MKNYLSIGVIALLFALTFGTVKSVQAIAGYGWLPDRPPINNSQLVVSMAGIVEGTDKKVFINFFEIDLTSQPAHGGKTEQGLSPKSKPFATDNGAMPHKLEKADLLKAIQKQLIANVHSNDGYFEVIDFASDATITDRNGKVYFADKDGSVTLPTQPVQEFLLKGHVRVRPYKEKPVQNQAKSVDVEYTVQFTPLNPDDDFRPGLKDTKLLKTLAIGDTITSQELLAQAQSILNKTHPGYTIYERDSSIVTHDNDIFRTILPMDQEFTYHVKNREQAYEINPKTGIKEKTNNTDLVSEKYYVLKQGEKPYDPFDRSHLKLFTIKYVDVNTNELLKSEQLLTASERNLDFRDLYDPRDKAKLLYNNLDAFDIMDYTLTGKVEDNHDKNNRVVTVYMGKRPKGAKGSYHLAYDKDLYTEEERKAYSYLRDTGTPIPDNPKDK

Ion channel NompC = Ion channel NompC (Danio rerio, UniProt Q7T1G6); assay: Fluorescence counterscreen assay for TRPML3 agonists: dose response cell-based high-throughput screening assay to identify agonists of the transient receptor potential channel N1 (TRPN1). [Related pubchem assays: 1526, 1424, 1448 ]; type: functional
Mucolipin-3 = Mucolipin-3 (Homo sapiens, UniProt Q8TDD5); assay: Dose response cell-based high-throughput screening assay for agonists of the transient receptor potential channel ML3 (TRPML3). [Related pubchem assays: 1526, 1424, 1448 ]; type: functional
Cytochrome P450 2D6 [11] = biological target: T4, Cytochrome P450 2D6 (Homo sapiens, UniProt P10635); assay: qHTS Assay for Inhibitors and Substrates of Cytochrome P450 2D6. [Related pubchem assays: 410 ]; type: ADME; conditions: read-out: Potency
Cytochrome P450 2D6 [12] = biological target: T4, Cytochrome P450 2D6
Cytochrome P450 2C9 [13] = biological target: T5, Cytochrome P450 2C9 (Homo sapiens, UniProt P11712); conditions: Potency
Cytochrome P450 2C19 = Cytochrome P450 2C19 (Homo sapiens, UniProt P33261); assay: Cytochrome panel assay with activity outcomes. Panel member name: p450-cyp2c19 Compounds with AC50 equal or less than 10 uM are considered active; type: functional; conditions: read-out: AC50
Cytochrome P450 2C9 [14] = biological target: T5, Cytochrome P450 2C9
Cytochrome P450 1A2 = biological target: T6, Cytochrome P450 1A2 (Homo sapiens, UniProt P05177);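 further: PubChem cytochrome P450 panel assay, CYP1A2 panel member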
T6 sequence (P05177 whole entry): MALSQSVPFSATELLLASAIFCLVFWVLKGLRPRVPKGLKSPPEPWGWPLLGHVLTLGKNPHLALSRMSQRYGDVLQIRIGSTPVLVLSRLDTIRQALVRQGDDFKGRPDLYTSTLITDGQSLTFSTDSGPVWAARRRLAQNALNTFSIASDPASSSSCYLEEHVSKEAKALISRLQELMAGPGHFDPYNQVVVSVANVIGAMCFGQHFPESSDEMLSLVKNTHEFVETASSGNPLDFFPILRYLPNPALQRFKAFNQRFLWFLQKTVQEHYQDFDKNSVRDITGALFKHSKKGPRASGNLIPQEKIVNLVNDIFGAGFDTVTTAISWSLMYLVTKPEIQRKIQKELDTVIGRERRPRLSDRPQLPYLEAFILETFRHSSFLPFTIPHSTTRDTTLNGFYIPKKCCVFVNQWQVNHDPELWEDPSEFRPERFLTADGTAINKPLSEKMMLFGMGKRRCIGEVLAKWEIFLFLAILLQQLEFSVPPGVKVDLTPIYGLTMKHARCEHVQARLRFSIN

T4 sequence (P10635 whole entry): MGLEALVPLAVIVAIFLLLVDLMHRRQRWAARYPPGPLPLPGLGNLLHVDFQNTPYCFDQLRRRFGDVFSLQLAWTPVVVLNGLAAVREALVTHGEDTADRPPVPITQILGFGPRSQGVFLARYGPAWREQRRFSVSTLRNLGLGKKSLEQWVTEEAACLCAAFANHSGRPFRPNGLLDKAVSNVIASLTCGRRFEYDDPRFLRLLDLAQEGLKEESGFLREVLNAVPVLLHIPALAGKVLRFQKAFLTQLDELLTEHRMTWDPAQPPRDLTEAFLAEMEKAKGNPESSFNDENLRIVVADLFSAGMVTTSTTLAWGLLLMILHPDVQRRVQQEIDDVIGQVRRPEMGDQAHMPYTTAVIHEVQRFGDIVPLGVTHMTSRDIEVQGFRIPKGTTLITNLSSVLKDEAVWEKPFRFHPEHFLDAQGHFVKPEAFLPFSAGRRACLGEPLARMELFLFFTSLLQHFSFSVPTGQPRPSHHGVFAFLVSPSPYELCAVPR
T5 sequence (P11712 whole entry): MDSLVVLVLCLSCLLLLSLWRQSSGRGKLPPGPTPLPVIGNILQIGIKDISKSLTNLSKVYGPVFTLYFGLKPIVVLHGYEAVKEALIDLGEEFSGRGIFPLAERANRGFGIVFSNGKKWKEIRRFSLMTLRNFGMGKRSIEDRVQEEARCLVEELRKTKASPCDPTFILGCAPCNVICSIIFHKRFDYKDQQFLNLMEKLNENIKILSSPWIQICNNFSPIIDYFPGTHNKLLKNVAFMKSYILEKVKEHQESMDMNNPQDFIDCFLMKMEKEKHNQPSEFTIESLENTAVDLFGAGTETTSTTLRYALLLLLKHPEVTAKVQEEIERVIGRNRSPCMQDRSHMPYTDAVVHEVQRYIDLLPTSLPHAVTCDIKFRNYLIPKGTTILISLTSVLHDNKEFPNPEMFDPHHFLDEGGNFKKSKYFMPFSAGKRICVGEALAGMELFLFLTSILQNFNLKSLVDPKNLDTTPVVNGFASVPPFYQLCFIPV
Ion channel NompC, sequence (Q7T1G6 whole entry): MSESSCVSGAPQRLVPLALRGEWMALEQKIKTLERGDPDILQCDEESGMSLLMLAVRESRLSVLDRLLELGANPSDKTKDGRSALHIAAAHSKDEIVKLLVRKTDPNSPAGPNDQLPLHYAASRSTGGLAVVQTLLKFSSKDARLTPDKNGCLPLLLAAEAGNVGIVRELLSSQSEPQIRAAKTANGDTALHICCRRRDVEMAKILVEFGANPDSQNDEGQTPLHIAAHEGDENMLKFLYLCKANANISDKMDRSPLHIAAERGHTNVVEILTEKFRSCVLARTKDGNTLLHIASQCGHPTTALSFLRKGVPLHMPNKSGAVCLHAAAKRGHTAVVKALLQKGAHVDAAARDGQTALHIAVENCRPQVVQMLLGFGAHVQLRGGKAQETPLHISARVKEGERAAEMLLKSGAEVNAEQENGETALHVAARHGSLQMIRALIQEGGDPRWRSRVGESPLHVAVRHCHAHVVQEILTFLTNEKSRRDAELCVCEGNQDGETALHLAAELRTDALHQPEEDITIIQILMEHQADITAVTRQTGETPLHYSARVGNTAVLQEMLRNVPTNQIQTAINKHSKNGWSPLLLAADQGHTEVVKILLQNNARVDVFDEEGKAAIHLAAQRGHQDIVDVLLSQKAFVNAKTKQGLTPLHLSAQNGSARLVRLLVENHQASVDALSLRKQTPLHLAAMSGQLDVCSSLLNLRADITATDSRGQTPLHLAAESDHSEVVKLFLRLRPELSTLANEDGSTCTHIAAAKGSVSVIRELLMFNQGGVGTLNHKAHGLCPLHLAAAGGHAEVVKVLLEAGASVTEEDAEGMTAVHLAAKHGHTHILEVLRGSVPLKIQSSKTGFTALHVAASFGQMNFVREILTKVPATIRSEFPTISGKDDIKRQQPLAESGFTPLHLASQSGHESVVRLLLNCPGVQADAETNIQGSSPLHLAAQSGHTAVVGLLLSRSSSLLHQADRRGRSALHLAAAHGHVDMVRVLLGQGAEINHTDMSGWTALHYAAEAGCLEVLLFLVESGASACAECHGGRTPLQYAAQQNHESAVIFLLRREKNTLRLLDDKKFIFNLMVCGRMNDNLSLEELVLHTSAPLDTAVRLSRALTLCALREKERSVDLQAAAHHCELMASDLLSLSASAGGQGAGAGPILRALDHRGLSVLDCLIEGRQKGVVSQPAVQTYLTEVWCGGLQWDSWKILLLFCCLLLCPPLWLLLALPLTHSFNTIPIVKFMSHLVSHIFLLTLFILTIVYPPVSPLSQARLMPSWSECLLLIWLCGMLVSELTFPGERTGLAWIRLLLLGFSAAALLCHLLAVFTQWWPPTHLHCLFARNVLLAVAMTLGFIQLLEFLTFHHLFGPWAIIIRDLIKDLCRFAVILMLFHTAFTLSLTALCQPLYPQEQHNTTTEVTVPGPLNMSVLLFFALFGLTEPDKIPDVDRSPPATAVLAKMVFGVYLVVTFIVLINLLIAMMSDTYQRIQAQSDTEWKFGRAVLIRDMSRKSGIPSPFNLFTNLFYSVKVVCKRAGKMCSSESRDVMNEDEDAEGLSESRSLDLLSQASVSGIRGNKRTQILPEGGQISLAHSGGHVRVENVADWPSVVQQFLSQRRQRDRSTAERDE
Cytochrome P450 2C19, sequence (P33261 whole entry): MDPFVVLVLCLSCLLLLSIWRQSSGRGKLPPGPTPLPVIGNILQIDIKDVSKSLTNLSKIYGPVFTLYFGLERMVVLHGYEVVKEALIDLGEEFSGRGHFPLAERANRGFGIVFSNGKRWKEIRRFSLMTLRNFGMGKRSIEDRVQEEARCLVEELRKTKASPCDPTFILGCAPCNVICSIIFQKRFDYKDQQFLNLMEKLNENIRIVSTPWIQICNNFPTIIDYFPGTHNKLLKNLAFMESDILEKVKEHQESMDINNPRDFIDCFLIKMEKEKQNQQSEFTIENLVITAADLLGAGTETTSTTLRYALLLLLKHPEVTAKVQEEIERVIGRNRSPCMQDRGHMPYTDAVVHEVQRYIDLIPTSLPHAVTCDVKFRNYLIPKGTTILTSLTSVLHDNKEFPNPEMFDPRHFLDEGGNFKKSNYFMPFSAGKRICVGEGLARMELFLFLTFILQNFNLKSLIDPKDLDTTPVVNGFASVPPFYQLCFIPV
Luciferin 4-monooxygenase, sequence (P08659 whole entry): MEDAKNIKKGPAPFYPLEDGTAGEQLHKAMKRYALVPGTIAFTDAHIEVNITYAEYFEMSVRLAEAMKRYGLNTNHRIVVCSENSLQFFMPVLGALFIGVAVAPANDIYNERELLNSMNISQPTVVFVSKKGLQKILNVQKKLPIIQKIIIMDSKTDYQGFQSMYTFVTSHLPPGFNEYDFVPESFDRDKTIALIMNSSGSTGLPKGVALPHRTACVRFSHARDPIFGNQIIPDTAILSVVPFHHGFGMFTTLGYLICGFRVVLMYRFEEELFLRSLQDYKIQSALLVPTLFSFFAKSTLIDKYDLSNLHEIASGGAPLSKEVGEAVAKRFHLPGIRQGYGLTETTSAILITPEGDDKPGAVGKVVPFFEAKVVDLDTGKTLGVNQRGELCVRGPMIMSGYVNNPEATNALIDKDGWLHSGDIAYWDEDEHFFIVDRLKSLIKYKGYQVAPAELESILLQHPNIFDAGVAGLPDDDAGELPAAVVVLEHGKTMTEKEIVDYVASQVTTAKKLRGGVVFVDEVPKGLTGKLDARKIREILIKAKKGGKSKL
Protein Rev, sequence (P05866 whole entry): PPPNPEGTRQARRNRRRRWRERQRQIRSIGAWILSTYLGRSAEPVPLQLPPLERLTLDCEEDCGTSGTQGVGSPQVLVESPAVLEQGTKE
Mucolipin-3, sequence (Q8TDD5 whole entry): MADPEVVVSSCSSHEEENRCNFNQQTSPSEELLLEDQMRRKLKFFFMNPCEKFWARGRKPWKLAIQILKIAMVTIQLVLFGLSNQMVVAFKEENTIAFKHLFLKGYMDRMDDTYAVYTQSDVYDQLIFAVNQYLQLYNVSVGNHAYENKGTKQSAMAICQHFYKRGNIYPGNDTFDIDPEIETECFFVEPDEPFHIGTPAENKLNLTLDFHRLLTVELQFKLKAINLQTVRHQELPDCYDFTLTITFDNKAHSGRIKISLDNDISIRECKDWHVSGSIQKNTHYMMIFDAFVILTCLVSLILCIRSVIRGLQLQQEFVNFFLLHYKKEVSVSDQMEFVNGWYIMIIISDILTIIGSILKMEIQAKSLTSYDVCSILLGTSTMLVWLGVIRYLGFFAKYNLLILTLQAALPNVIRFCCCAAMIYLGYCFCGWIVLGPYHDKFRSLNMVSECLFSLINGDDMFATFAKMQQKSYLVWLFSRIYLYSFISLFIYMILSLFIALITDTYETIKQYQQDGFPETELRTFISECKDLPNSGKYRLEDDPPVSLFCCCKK
Chaperone protein dnaK, sequence (C3TRK2 whole entry): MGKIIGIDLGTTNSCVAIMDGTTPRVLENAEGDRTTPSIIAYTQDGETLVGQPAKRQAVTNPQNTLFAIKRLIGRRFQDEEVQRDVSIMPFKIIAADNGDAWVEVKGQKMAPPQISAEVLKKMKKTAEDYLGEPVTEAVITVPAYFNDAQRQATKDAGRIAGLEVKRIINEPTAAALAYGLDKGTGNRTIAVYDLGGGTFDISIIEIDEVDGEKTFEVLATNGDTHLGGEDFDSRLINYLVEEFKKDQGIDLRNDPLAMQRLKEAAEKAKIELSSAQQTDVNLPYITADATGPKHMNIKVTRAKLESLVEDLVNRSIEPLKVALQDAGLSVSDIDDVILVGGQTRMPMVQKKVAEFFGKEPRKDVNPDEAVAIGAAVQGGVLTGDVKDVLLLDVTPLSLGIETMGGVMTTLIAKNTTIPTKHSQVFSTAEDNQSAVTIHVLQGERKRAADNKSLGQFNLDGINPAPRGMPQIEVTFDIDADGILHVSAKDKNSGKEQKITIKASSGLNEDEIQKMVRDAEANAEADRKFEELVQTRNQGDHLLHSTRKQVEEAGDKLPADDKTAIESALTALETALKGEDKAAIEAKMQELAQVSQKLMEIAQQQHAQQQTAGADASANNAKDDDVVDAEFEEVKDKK

## CC(=O)c1sc(NC(=O)C2COc3ccccc3O2)nc1C (centres undefined)
HEK293
  AC50: 2.85 µM (active)
HT-1080
  EC50: > 50 µM (not active)
[1]
  EC50: 3.97 µM (active)

## Nc1ccc2c(ccn2C(=O)c2cccs2)c1
Chaperone protein dnaK
  Kd: 3.4 µM (active)

## COc1cccc(OC)c1-c1nn2c(-c3cc(-c4ccccc4)n[nH]3)nnc2s1
Bcl-2-related protein A1 [2]
  IC50: > 100 µM (not active)
[3]
  IC50: > 50 µM (not active)
Bcl-2-related protein A1 [4]
  IC50: 14.1 µM (active)
Protein Rev
  IC50: > 79.4 µM (not active)

## COCCN(CCOC)c1nc(C)nc2c1nc(-c1ccccc1)n2CCN(C)C
Cytochrome P450 3A4
  AC50: 15.8 µM (inconclusive)

## Cc1cccc(C)c1Oc1nc(-c2ccccc2)ncc1S(=O)(=O)c1ccccc1
[5]
  EC50: 44.1 µM (active)
Streptococcus [6]
  EC50: > 500 µM (not active)
[7]
  EC50: 16.9 µM (active)
Streptococcus [8]
  EC50: > 150 µM (not active)
[9]
  EC50: 29.8 µM (active)
[10]
  EC50: 13.2 µM (active)
Streptokinase A
  EC50: 3.99 µM (active)

## COc1ccc(S(=O)(=O)N2CCC(C)CC2)cc1Br
Ion channel NompC
  EC50: > 29.9 µM (not active)
Mucolipin-3
  EC50: 1.82 µM (active)

## O=C(CCNNC(=O)c1ccncc1)NCc1ccccc1 [NIALAMIDE]
Cytochrome P450 2D6 [11]
  AC50: 25.1 µM (inconclusive)
Cytochrome P450 2D6 [12]
  AC50: 7.94 µM (inconclusive)
Cytochrome P450 2C9 [13]
  AC50: 25.1 µM (inconclusive)
Cytochrome P450 2C19
  AC50: 10 µM (inconclusive)
Cytochrome P450 2C9 [14]
  AC50: 10 µM (inconclusive)
Cytochrome P450 1A2
  AC50: 12.6 µM (inconclusive)
